Measurements published in patent US7058616B1, “Method and system for predicting resistance of a disease to a therapeutic agent using a neural network” (Virco Bvba, priority 2000, dated 2006).

Tested on: HIV-1
Test: MT-4 cell viral cytopathic effect protection assay, phenotypic susceptibility of patient recombinant virus
Format: cell-based
Method: Phenotypic susceptibility was determined using a MT-4 cell viral cytopathic effect protection assay. See, e.g., Kashiwase et al., Chemotherapy 45(1):48–55 (1999), expressly incorporated herein by reference; Larder et al., Antimicrob. Agents Chemother. 43(8):1961–1967 (1999).

CC(C)(C)NC(=O)[C@@H]1CN(Cc2cccnc2)CCN1C[C@@H](O)C[C@@H](Cc1ccccc1)C(=O)N[C@H]1c2ccccc2C[C@H]1O [Indinavir]
actual phenotype resistance level (PI test sample 4): R/R (if the value is greater than 10, it is considered to be ‘resistant’)
actual phenotype resistance level (PI test sample 5): R (if the value is greater than 10, it is considered to be ‘resistant’)
actual phenotype resistance level (PI test sample 6): S/S (A fold resistance of less than or equal to 4 is considered to be ‘sensitive’)
actual phenotype resistance level (PI test sample 7): S/S (A fold resistance of less than or equal to 4 is considered to be ‘sensitive’)
actual phenotype resistance level (PI test sample 8): S/S (A fold resistance of less than or equal to 4 is considered to be ‘sensitive’)
actual phenotype resistance level (PI test sample 9): S/S (A fold resistance of less than or equal to 4 is considered to be ‘sensitive’)
actual phenotype resistance level (PI test sample 10): S/S (A fold resistance of less than or equal to 4 is considered to be ‘sensitive’)
actual phenotype resistance level (PI test sample 11, listed as IDV): S (A fold resistance of less than or equal to 4 is considered to be ‘sensitive’)
actual phenotype resistance level (PI test sample 12): S/S (A fold resistance of less than or equal to 4 is considered to be ‘sensitive’)
actual phenotype resistance level (PI test sample 13): R/R (if the value is greater than 10, it is considered to be ‘resistant’)
actual phenotype resistance level (PI test sample 14): R/R (if the value is greater than 10, it is considered to be ‘resistant’)
actual phenotype resistance level (PI test sample 16): R/R (if the value is greater than 10, it is considered to be ‘resistant’)
actual phenotype resistance level (PI test sample 17): R/R (if the value is greater than 10, it is considered to be ‘resistant’)
actual phenotype resistance level (PI test sample 22): S (A fold resistance of less than or equal to 4 is considered to be ‘sensitive’)
actual phenotype resistance level (PI test sample 23): R/R (if the value is greater than 10, it is considered to be ‘resistant’)
actual phenotype resistance level (PI test sample 24): R/R (if the value is greater than 10, it is considered to be ‘resistant’)
actual phenotype resistance level (PI test sample 26): R/R (if the value is greater than 10, it is considered to be ‘resistant’)
actual phenotype resistance level (PI test sample 27): R/R (if the value is greater than 10, it is considered to be ‘resistant’)
actual phenotype resistance level (PI test sample 28): R/R (if the value is greater than 10, it is considered to be ‘resistant’)
actual phenotype resistance level (PI test sample 32): R/R (if the value is greater than 10, it is considered to be ‘resistant’)
actual phenotype resistance level (PI test sample 35): R/R (if the value is greater than 10, it is considered to be ‘resistant’)
actual phenotype resistance level (PI test sample 36): R/R (if the value is greater than 10, it is considered to be ‘resistant’)
actual phenotype resistance level (PI test sample 37): I/I (greater than 4 and less than 10 is considered to be ‘intermediate’)
actual phenotype resistance level (PI test sample 38): R/R (if the value is greater than 10, it is considered to be ‘resistant’)
actual phenotype resistance level (PI test sample 39): R/R (if the value is greater than 10, it is considered to be ‘resistant’)
actual phenotype resistance level (PI test sample 40): R/R (if the value is greater than 10, it is considered to be ‘resistant’)
actual phenotype resistance level (PI test sample 43): I/I (greater than 4 and less than 10 is considered to be ‘intermediate’)
actual phenotype resistance level (PI test sample 45): R/R (if the value is greater than 10, it is considered to be ‘resistant’)
actual phenotype resistance level (PI test sample 46): R/R (if the value is greater than 10, it is considered to be ‘resistant’)
actual phenotype resistance level (PI test sample 47, listed as IDV): R/R (if the value is greater than 10, it is considered to be ‘resistant’)
actual phenotype resistance level (PI test sample 48): R/R (if the value is greater than 10, it is considered to be ‘resistant’)
actual phenotype resistance level (PI test sample 49): R/R (if the value is greater than 10, it is considered to be ‘resistant’)
actual phenotype resistance level (PI test sample 51): R/R (if the value is greater than 10, it is considered to be ‘resistant’)
actual phenotype resistance level (PI test sample 53): R/R (if the value is greater than 10, it is considered to be ‘resistant’)
actual phenotype resistance level (Table 3 testing sample 1): S/S (A fold resistance of less than or equal to 4 is considered to be “sensitive,”)
actual phenotype resistance level (Table 3 testing sample 2): S/S (A fold resistance of less than or equal to 4 is considered to be “sensitive,”)
actual phenotype resistance level (Table 3 testing sample 5): R/R (if the value is greater than 10, it is considered to be “resistant.”)
actual phenotype resistance level (Table 3 testing sample 7): S/S (A fold resistance of less than or equal to 4 is considered to be “sensitive,”)
actual phenotype resistance level (Table 3 testing sample 9): S/S (A fold resistance of less than or equal to 4 is considered to be “sensitive,”)
actual phenotype resistance level (Table 3 testing sample 10): S (A fold resistance of less than or equal to 4 is considered to be “sensitive,”)
actual phenotype (Table 13/14 sample 2: 10I,46I,48V,77I,82A,90M, 10E,58E,63T): S (A fold resistance of less than or equal to 4 is considered to be ‘sensitive’)
actual phenotype (Table 13/14 sample 8: 10I,54V,71V,73S,84V,90M, 33M,63P): I (greater than 4 and less than 10 is considered to be ‘intermediate’)
actual phenotype (Table 13/14 sample 13: 10I,36I,71T,90M, 63P,73T): I (greater than 4 and less than 10 is considered to be ‘intermediate’)
actual phenotype (Table 13/14 sample 14: 10I,46I,71T,77I,90M, 57K,63P,93L): S (A fold resistance of less than or equal to 4 is considered to be ‘sensitive’)
actual phenotype (Table 13/14 sample 17: 46I,77I,90M, 10F,20L,63P): I (greater than 4 and less than 10 is considered to be ‘intermediate’)
actual phenotype (Table 13/14 sample 18: 36I,71T,90M, 63P,93L): S (A fold resistance of less than or equal to 4 is considered to be ‘sensitive’)
actual phenotype (Table 13/14 sample 20: 77I,88S, 13V, 63P, 93L): S (A fold resistance of less than or equal to 4 is considered to be ‘sensitive’)
actual phenotype (Table 13/14 sample 21: 10I,77I,84V,90M, 63Q): I (greater than 4 and less than 10 is considered to be ‘intermediate’)
actual phenotype (Table 13/14 sample 22: 10I,20R,36I,71V,73S,84V,90M, 13V,63P): R (if the value is greater than 10, it is considered to be ‘resistant’)
